Reference: paper PMC11187126, “Structure and dynamics of the pyroglutamylated RF-amide peptide QRFP receptor GPR103” (Nature Communications, 2024)
No end group written: not given here.

Target: T1, GPR103 C98^2.57A (Homo sapiens, UniProt Q96P65, C98A)
T1 construct: we used human full-length QRFPR-encoding plasmids; expressed in transfected cells; host or cells: HEK293 cells, pCAGGS vector
T1 sequence (Q96P65 1-431 C98A): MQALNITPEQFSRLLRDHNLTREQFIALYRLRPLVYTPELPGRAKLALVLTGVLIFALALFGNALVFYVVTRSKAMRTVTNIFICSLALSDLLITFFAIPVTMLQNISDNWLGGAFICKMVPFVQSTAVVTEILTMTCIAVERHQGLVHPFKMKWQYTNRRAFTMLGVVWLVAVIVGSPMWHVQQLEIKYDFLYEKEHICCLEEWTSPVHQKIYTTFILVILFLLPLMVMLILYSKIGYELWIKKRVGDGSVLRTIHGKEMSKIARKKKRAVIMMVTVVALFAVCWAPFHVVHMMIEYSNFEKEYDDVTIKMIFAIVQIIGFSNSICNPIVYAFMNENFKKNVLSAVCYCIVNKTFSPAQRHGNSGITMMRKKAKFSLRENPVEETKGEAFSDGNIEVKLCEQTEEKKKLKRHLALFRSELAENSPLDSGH
Assay: TGFα shedding assay; Exp. level WT (1:50)
Type: cell-based

## TSGPLGNLAEELNGYSRKKGGFSFRF-NH2 [QRFP26]
mean
  Emax: 86%
N = 3
  EC50: 0.0724 µM
  Emax: 88.3 ± 3.6%
